A value given as a limit tells only on which side of the number the result lay.

For one data set, the system named is Spodoptera littoralis. Kind of data set: Example B9: Spodoptera littoralis (Egyptian cotton leaf worm), cotton leaf discs, L1 larvae. It is filed as in vivo. The conditions noted are these: foliar, 72 h, application rate of 200 ppm, 3 days after infestation, read-out: control in at least one of the three categories (mortality, anti-feedant effect, or growth inhibition). The procedure, abridged:
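Five L1 larvae placed on sprayed, dried cotton leaf discs; spray solutions aqueous, from 10,000 ppm DMSO stocks. Control given when mortality, anti-feedant effect or growth inhibition exceeds untreated samples at 3 days.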

The test system of another data set is Plutella xylostella. The data set can be described thus: Example B8: Plutella xylostella (diamond back moth), artificial diet 24-well, eggs. It is filed as in vivo. Conditions: 192 h, application rate of 200 ppm, 8 days after infestation, read-out: effect in at least one of the two categories (mortality or growth inhibition). In short, it runs like this:
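Plutella eggs placed onto dried, compound-treated artificial diet, the aqueous test solutions diluted from 10,000 ppm DMSO stocks. Eight days post-infestation, larvae rated for mortality and growth inhibition relative to untreated controls.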

In data set [1] the test system is Myzus persicae. The data set can be described thus: Example B7: Myzus persicae (green peach aphid), intrinsic activity, sucrose solution 24-well. It is filed as in vivo. The conditions noted are these: 120 h, application rate of 12.5 ppm, 5 days after infestation, read-out: control (mortality). In short, it runs like this: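 Compounds from 10,000 ppm DMSO stocks were mixed into sucrose solution in wells at a rate of 12.5 ppm. Aphid-infested pea seedlings were placed on a Parafilm membrane over the solution, so aphids fed through it. Mortality was scored 5 days after infestation.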

Data set [2] has as its system Frankliniella occidentalis. The data set can be described thus: Example B4: Frankliniella occidentalis (western flower thrips), feeding/contact activity. It is filed as in vivo. Conditions: 168 h, application rate of 200 ppm, 7 days after infestation. The procedure:
Example B4: Frankliniella occidentalis (Western Flower Thrips):Feeding/Contact Activity
Sunflower leaf discs were placed on agar in 24-well microtiter plates and sprayed with aqueous test solutions prepared from 10,000 DMSO stock solutions. After drying the leaf discs were infested with a Frankliniella population of mixed ages. The samples were assessed for mortality 7 days after infestation.

For the next data set, the system named is Diabrotica balteata. The data set can be described thus: Example B2: Diabrotica balteata (corn root worm), maize sprouts, L2 larvae. Conditions: 96 h, application rate of 200 ppm, 4 days after infestation, read-out: control in at least one of the two categories (mortality or growth inhibition). It is filed as in vivo. In short, it runs like this:
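Maize sprouts on agar sprayed with aqueous test solutions made from 10,000 ppm DMSO stocks, dried, then infested with 6 to 10 L2 larvae per well. Mortality and growth inhibition assessed versus untreated samples 4 days after infestation; application rate 200 ppm.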

The test system of a further data set is Chilo suppressalis. Kind of data set: Example B1: Chilo suppressalis (striped rice stemborer), artificial diet, L2 larvae. The format is in vivo. Conditions: 144 h, application rate of 200 ppm, 6 days after infestation, read-out: control in at least one of the three categories (mortality, anti-feedant effect, or growth inhibition). The procedure, abridged: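 L2 larvae (6-8 per well) were placed on dried artificial diet that had been dosed with aqueous dilutions of 10,000 ppm DMSO stock solutions. After 6 days, control was credited if mortality, antifeedant effect or growth inhibition was higher than in untreated samples.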

Another data set relates to Euschistus heros. The data set can be described thus: Example B3: Euschistus heros (neotropical brown stink bug), soybean leaves, N2 nymphs. Conditions: 120 h, application rate of 200 ppm, 5 days after infestation, read-out: control in at least one of the two categories (mortality or growth inhibition). It is filed as in vivo. As to the method: Example B3: Euschistus heros (Neotropical Brown Stink Bug)
Soybean leaves on agar in 24-well microtiter plates were sprayed with aqueous test solutions prepared from 10,000 ppm DMSO stock solutions. After drying the leaves were infested with N2 nymphs. The samples were assessed for mortality and growth inhibition in comparison to untreated samples 5 days after infestation.
The following compounds gave an effect of at least 80% control in at least one of the two categories (mortality or growth inhibition) at an application rate of 200 ppm: […]

Data set [3] relates to Myzus persicae. Kind of data set: Example B6: Myzus persicae (green peach aphid), systemic activity, pea seedlings. The format is in vivo. The conditions noted are these: 144 h, test rate of 24 ppm, 6 days after placing seedlings into test solutions. The procedure: Example B6: Myzus persicae (Green Peach Aphid). Systemic Activity
Roots of pea seedlings infested with an aphid population of mixed ages were placed directly into aqueous test solutions prepared from 10,000 DMSO stock solutions. The samples were assessed for mortality 6 days after placing seedlings into test solutions.

Data set [4] concerns Myzus persicae. Kind of data set: Example B5: Myzus persicae (green peach aphid), feeding/contact activity. It is filed as in vivo. The conditions noted are these: 144 h, application rate of 200 ppm, 6 days after infestation. The procedure: Example B5: Myzus persicae (Green Peach Aphid):Feeding/Contact Activity
Sunflower leaf discs were placed onto agar in a 24-well microtiter plate and sprayed with aqueous test solutions prepared from 10,000 ppm DMSO stock solutions. After drying, the leaf discs were infested with an aphid population of mixed ages. The samples were assessed for mortality 6 days after infestation.

For `C[C@H](NC(=O)Nc1cc(OC(F)(F)Cl)c(Cl)cc1F)c1ncnn1-c1ncccn1` [Example P219, 1-[4-chloro-5-[chloro(difluoro)methoxy]-2-fluoro-phenyl]-3-[(1S)-1-(2-pyrimidin-2-yl-1,2,4-triazol-3-yl)ethyl]urea], the percent control (mortality, anti-feedant effect or growth inhibition) at 200 ppm in the data set on Spodoptera littoralis and in the data set on Chilo suppressalis was ≥ 80% throughout. Also, in the data set with Plutella xylostella, the percent effect (mortality or growth inhibition) at 200 ppm is ≥ 80%. Further, in the data set with Myzus persicae [1], the mortality (commonly the share of the test organisms that died) at 12.5 ppm was ≥ 80%. In data set [2], the mortality at 200 ppm is ≥ 80%. The percent control (mortality or growth inhibition) at 200 ppm with Diabrotica balteata is ≥ 80%.

As for `COC(=O)c1cc(Cl)c(Cl)cc1NC(=O)N[C@@H](C)c1ncnn1-c1ncccn1` [Example P199, methyl 4,5-dichloro-2-[[(1S)-1-(2-pyrimidin-2-yl-1,2,4-triazol-3-yl)ethyl]carbamoylamino]benzoate], the mortality at 200 ppm in data set [2] was ≥ 80%.

Turning to `C[C@H](NC(=O)Nc1ccc(Br)c(Br)c1)c1nccnc1-c1ncccn1`, the melting point – broadly, the temperature of the solid-liquid transition – was in the range of 220 to 222 °C.

With `C[C@H](NC(=O)Nc1cc(OCc2ccc(Cl)cn2)c(Cl)cc1Cl)c1ncnn1-c1ncccn1` [Example P142, 1-[2,4-dichloro-5-[(5-chloro-2-pyridyl)methoxy]phenyl]-3-[(1S)-1-(2-pyrimidin-2-yl-1,2,4-triazol-3-yl)ethyl]urea], in [2], the mortality at 200 ppm is ≥ 80%.

Turning to `CC(NC(=O)Nc1ccc(C(F)(F)F)cc1C(F)(F)F)c1ncnn1-c1ncccn1` (stereo not shown) [Example P1, 1-[2,4-bis(trifluoromethyl)phenyl]-3-[1-(2-pyrimidin-2-yl-1,2,4-triazol-3-yl)ethyl]urea], the percent control (mortality, anti-feedant effect or growth inhibition) at 200 ppm in the data set with Spodoptera littoralis and with Chilo suppressalis was ≥ 80% each time. In addition, the percent effect (mortality or growth inhibition) at 200 ppm with Plutella xylostella was ≥ 80%. The mortality at 12.5 ppm in the data set on Myzus persicae [1] was ≥ 80%. Moreover, the percent control (mortality or growth inhibition) at 200 ppm in the data set on Diabrotica balteata and in the data set on Euschistus heros was ≥ 80% in each case.

Take `CC(NC(=O)Nc1cnc(C(F)(F)F)cc1Cl)c1nccnc1-c1ncccn1` (stereo not shown) [Example P244, 1-[4-chloro-6-(trifluoromethyl)-3-pyridyl]-3-[1-(3-pyrimidin-2-ylpyrazin-2-yl)ethyl]urea]: the mortality at 24 ppm in the data set on Myzus persicae [3] was ≥ 80%. Moreover, the mortality at 200 ppm in the data set on Myzus persicae [4] is ≥ 80%. Also, the percent control (mortality, anti-feedant effect or growth inhibition) at 200 ppm with Spodoptera littoralis and in the data set on Chilo suppressalis was ≥ 80% throughout. Also, in the data set with Plutella xylostella, the percent effect (mortality or growth inhibition) at 200 ppm was ≥ 80%. Also, in the data set on Myzus persicae [1], the mortality at 12.5 ppm is ≥ 80%.

Consider `C[C@H](NC(=O)Nc1ccc(F)cc1C#N)c1ncnn1-c1ncccn1` [Example P62, 1-(2-cyano-4-fluoro-phenyl)-3-[(1S)-1-(2-pyrimidin-2-yl-1,2,4-triazol-3-yl)ethyl]urea], for which, in the data set on Myzus persicae [4], the mortality at 200 ppm is ≥ 80%. In addition, the percent control (mortality or growth inhibition) at 200 ppm in the data set with Euschistus heros is ≥ 80%.

For `C[C@H](NC(=O)Nc1cc(OC(F)(F)C(F)F)c(Cl)cc1Cl)c1ncnn1-c1ccc(=O)n(C)n1` [Example P269, 1-[2,4-dichloro-5-(1,1,2,2-tetrafluoroethoxy)phenyl]-3-[(1S)-1-[2-(1-methyl-6-oxo-pyridazin-3-yl)-1,2,4-triazol-3-yl]ethyl]urea], in the data set with Spodoptera littoralis, the percent control (mortality, anti-feedant effect or growth inhibition) at 200 ppm is ≥ 80%. Also, in the data set on Myzus persicae [1], the mortality at 12.5 ppm was ≥ 80%. For the same molecule, the percent control (mortality or growth inhibition) at 200 ppm with Diabrotica balteata and in the data set with Euschistus heros was ≥ 80% in each case.

As to `Cc1cccc(Cl)c1NC(=O)N[C@@H](C)c1ncnn1-c1ncccn1` [Example P71, 1-(2-chloro-6-methyl-phenyl)-3-[(1S)-1-(2-pyrimidin-2-yl-1,2,4-triazol-3-yl)ethyl]urea], in data set [2], the mortality at 200 ppm is ≥ 80%.

Molecule `C[C@H](NC(=S)Nc1cc(Cl)cc(C(F)(F)F)c1)c1ncnn1-c1ncccn1` yielded a melting point of 106 to 108 °C.

For `C[C@H](NC(=O)Nc1cc(C(F)(F)F)c(Cl)cc1Br)c1nccnc1-c1ccc(C#N)cn1` [Example P246, 1-[2-bromo-4-chloro-5-(trifluoromethyl)phenyl]-3-[(1S)-1-[3-(5-cyano-2-pyridyl)pyrazin-2-yl]ethyl]urea], the percent control (mortality, anti-feedant effect or growth inhibition) at 200 ppm in the data set with Spodoptera littoralis was ≥ 80%. Also, the percent control (mortality or growth inhibition) at 200 ppm in the data set with Diabrotica balteata and with Euschistus heros was ≥ 80% in each case.

Turning to `Cc1cc2c(cc1NC(=O)N[C@@H](C)c1ncnn1-c1ncccn1)OCC(=O)N2` [Example P208, 1-(6-methyl-3-oxo-4H-1,4-benzoxazin-7-yl)-3-[(1S)-1-(2-pyrimidin-2-yl-1,2,4-triazol-3-yl)ethyl]urea], in data set [2], the mortality at 200 ppm was ≥ 80%.

`C[C@@H](c1ncnn1-c1ncccn1)N1CCN(c2cc(OC(F)(F)C(F)F)c(Cl)cc2Cl)C1=O` registered a melting point of 207 to 209 °C.

`C[C@H](NC(=O)Nc1cc(Cl)c(Cl)cc1I)c1ncnn1-c1ncccn1` (stereo in doubt) came in with a melting point of 236 to 249 °C.

On to `C[C@H](NC(=O)Nc1cnc(C(F)(F)F)cc1Br)c1ncnn1-c1ncccn1` [Example P280, 1-[4-bromo-6-(trifluoromethyl)-3-pyridyl]-3-[(1S)-1-(2-pyrimidin-2-yl-1,2,4-triazol-3-yl)ethyl]urea], for which the percent control (mortality, anti-feedant effect or growth inhibition) at 200 ppm with Spodoptera littoralis and with Chilo suppressalis was ≥ 80% throughout. In addition, the percent effect (mortality or growth inhibition) at 200 ppm in the data set on Plutella xylostella is ≥ 80%. In addition, the mortality at 12.5 ppm with Myzus persicae [1] is ≥ 80%. Besides, the mortality at 200 ppm in data set [2] is ≥ 80%. For the same molecule, the percent control (mortality or growth inhibition) at 200 ppm in the data set on Diabrotica balteata and in the data set with Euschistus heros was ≥ 80% each time.

Take `CC(NC(=O)Nc1cc(C(F)(F)F)cc(C(F)(F)F)c1)c1ncnn1-c1ncccn1` (stereo not shown): the melting point was 124 to 127 °C.

In the case of `C[C@H](NC(=O)Nc1cnc(C(F)(F)F)cc1I)c1ncnn1-c1ncccn1`, the melting point fell in the range of 183 to 186 °C.

`C[C@@H]1CN(C(=O)c2ccc(-n3ncnc3[C@H](C)NC(=O)Nc3cc(C(F)(F)F)c(Cl)cc3Cl)nc2)C[C@H](C)O1` registered a melting point of 138 to 140 °C.

Take `C[C@H](NC(=O)Nc1cc(F)c(Br)cc1OC(F)F)c1ncnn1-c1ncccn1` [Example P390, 1-[4-bromo-2-(difluoromethoxy)-5-fluoro-phenyl]-3-[(1S)-1-(2-pyrimidin-2-yl-1,2,4-triazol-3-yl)ethyl]urea]: the percent control (mortality, anti-feedant effect or growth inhibition) at 200 ppm with Spodoptera littoralis and with Chilo suppressalis was ≥ 80% throughout. In the data set on Plutella xylostella, the percent effect (mortality or growth inhibition) at 200 ppm was ≥ 80%. In addition, the mortality at 12.5 ppm in the data set with Myzus persicae [1] is ≥ 80%. The percent control (mortality or growth inhibition) at 200 ppm in the data set with Diabrotica balteata and with Euschistus heros was ≥ 80% each time.

In the case of `Cc1cc(C(F)(F)F)ncc1NC(=O)N[C@@H](C)c1ncnn1-c1ncccn1` [Example P328, 1-[4-methyl-6-(trifluoromethyl)-3-pyridyl]-3-[(1S)-1-(2-pyrimidin-2-yl-1,2,4-triazol-3-yl)ethyl]urea], the mortality at 200 ppm in the data set on Myzus persicae [4] is ≥ 80%. Besides, the mortality at 12.5 ppm with Myzus persicae [1] is ≥ 80%. Besides, the percent control (mortality or growth inhibition) at 200 ppm in the data set with Euschistus heros was ≥ 80%. Further, the percent control (mortality, anti-feedant effect or growth inhibition) at 200 ppm in the data set with Chilo suppressalis was ≥ 80%.

These data come from patent US20240108006A1, “PESTICIDALLY ACTIVE HETEROAROMATIC COMPOUNDS” (SYNGENTA CROP PROTECTION AG, priority 2021, published 2024).
